Measurements as given in patent US9115148B2, “Spirocyclic derivatives as histone deacetylase inhibitors” (DAC S.R.L., priority 2008, dated 2015).

Tests used:
[1] = test system: HDAC (nuclear fraction of Hela cells); assay: Assay of enzyme inhibition of HDAC (BIOMOL Kit); type: biochemical; details: substrate 200 μM, 15 min at RT
Method: 2.2 Assay of Enzyme Inhibition of HDAC
The in-vitro activity of HDAC inhibitors was assayed using a BIOMOL Kit, according to the instructions from the manufacturer (Biomolecular Research Laborator). 15 μl of 30× diluted nuclear fraction of Hela cells, was diluted to 50 μl with the assay buffer containing the HDAC inhibitor and the substrate (lysine with acetylated amino group on the side chain) at a concentration of 200 μM. The samples were incubated for 15 min at RT and then exposed to a developer (10 min at RT). In this last step a fluorophore was produced, whose fluorescence was measured using an excitation wavelength of 355 nm and an emission at 460 nm. The IC50 was calculated using GraphPad Software.

K562 cells = assay: Cell growth, CellTiter-Glo Luminescent Cell Viability Assay, K562; type: cell-based; details: Homo sapiens, 72 h incubation, read-out: IC50 antiproliferative assay K562
Excerpt: (§1) CellTiter-Glo® Luminescent Cell Viability Assay (Promega) is a homogeneous method of determining the number of viable cells in culture based on quantitation of the present ATP, which indicates the presence of metabolically active cells. The homogeneous assay procedure involves addition of a single reagent (CellTiter-Glo® Reagent) directly to the cells, which leads to cell lysis and generation of a luminescent signal proportional to the amount of the ATP and the number of cells present in culture. The assay relies on the properties of a proprietary thermostable luciferase (Ultra-Glo® recombinant luciferase), which generates a luminescent signal.
(§2) K562, A549 and HCT-116 cells, in exponential growth, were incubated for 72 h with different concentrations of the inhibitors. After 72 h, a volume of CellTiter-Glo® Reagent equal to the volume of cell culture medium was added. The content was mixed for 2 min to induce cell lysis. The luminescence was recorded after further 10 min at RT in order to obtain a stabilized luminescent signal.
(§3) The IC50 was calculated using GraphPad Software.
(§4) IC50 results were allocated to one of 3 ranges as follows: Range A: IC50≦1.0 μM; Range B: from 1.0 to 3.0 μM; Range C: IC50≧3.0 μM.

A549 cells = assay: Cell growth, CellTiter-Glo Luminescent Cell Viability Assay, A549; type: cell-based; details: Homo sapiens, 72 h incubation, read-out: IC50 antiproliferative assay A549
Excerpt: as §1, §2, §3, §4

HCT-116 cells = assay: Cell growth, CellTiter-Glo Luminescent Cell Viability Assay, HCT-116; type: cell-based; details: Homo sapiens, HCT116 cells, 72 h incubation, read-out: IC50 antiproliferative assay HCT116
Excerpt: as §1, §2, §3, §4

IC50 [1]	IC50 (K562 cells)	IC50 (A549 cells)	IC50 (HCT-116 cells)	Compound
100 to 1000 nM	≤ 1000 nM	1000 to 3000 nM	≤ 1000 nM	O=C(/C=C/c1ccc2c(c1)C(=O)CC1(CCN(Cc3ccccn3)CC1)O2)NO [Example 40, (E)-3-{1′-(Pyridin-2-ylmethyl)-4-oxo-spiro[chromane-2,4′-piperidine]-6-yl}-N-hydroxy-acrylamide]
100 to 1000 nM	1000 to 3000 nM	1000 to 3000 nM	≥ 3000 nM	CCOC(=O)N1CCC2(CC1)CC(=O)c1ccc(/C=C/C(=O)NO)cc1O2 [Example 12, (E)-3-{1′-Ethyloxycarbonyl-4-oxo-spiro[chromane-2,4′-piperidine]-7-yl}-N-hydroxy-acrylamide]
100 to 1000 nM	1000 to 3000 nM	1000 to 3000 nM	≤ 1000 nM	CON=C1CC2(CCN(Cc3ccccc3)CC2)Oc2ccc(/C=C/C(=O)NO)cc21 (racemic) [Example 18, (E)-3-{1′-Benzyl-4-methyloxyimino-spiro[chromane-2,4′-piperidine]-6-yl}-N-hydroxy-acrylamide]
< 100 nM	≤ 1000 nM	1000 to 3000 nM	≤ 1000 nM	O=C(/C=C/c1ccc2c(c1)C(=O)CC1(CCN(Cc3c[nH]c4cc(F)ccc34)CC1)O2)NO [Example 53, (E)-3-{1′-(6-Fluoro-1H-indol-3-ylmethyl)-4-oxo-spiro[chromane-2,4′-piperidine]-6-yl}-N-hydroxy-acrylamide]
100 to 1000 nM	≤ 1000 nM	1000 to 3000 nM	≤ 1000 nM	O=C(/C=C/c1ccc2c(c1)C(=O)NC1(CCN(Cc3ccc(F)cc3)CC1)O2)NO [Example 74, (E)-3-{1′-(4-Fluoro-benzyl)-3,4-dihydro-4-oxo-spiro[2H-(1,3)-benzoxazine-2,4′-piperidin]-6-yl}-N-hydroxy-acrylamide]
100 to 1000 nM	1000 to 3000 nM	≥ 3000 nM	1000 to 3000 nM	O=C(/C=C/c1ccc2c(c1)C(=O)CC1(CCN(C(=O)c3ccccc3)CC1)O2)NO [Example 4, (E)-3-{1′-Benzoyl-4-oxo-spiro[chromane-2,4′-piperidine]-6-yl}-N-hydroxy-acrylamide]
100 to 1000 nM	≤ 1000 nM	≤ 1000 nM	≤ 1000 nM	O=C(/C=C/c1ccc2c(c1)C(=O)CC1(CCN(CCc3ccccc3)CC1)O2)NO [Example 55, (E)-3-{1′-(2-Phenyl-ethyl)-4-oxo-spiro[chromane-2,4′-piperidine]-6-yl}-N-hydroxy-acrylamide]
100 to 1000 nM	≥ 3000 nM	≥ 3000 nM	≥ 3000 nM	O=C(/C=C/c1ccc2c(c1)C(=O)CC1(CCN(C(=O)NCc3ccccc3)CC1)O2)NO [Example 47, (E)-3-{1′-Benzylcarbamoyl-4-oxo-spiro[chromane-2,4′-piperidine]-6-yl}-N-hydroxy-acrylamide]
100 to 1000 nM	≤ 1000 nM	≤ 1000 nM	≤ 1000 nM	O=C(/C=C/c1ccc2c(c1)C(=O)CC1(CCN(CCc3ccccc3F)CC1)O2)NO [Example 59, (E)-3-{1′-[2-(2-Fluoro-phenyl)-ethyl]-4-oxo-spiro[chromane-2,4′-piperidine]-6-yl}-N-hydroxy-acrylamide]
< 100 nM	1000 to 3000 nM	1000 to 3000 nM	≤ 1000 nM	O=C(/C=C/c1ccc2c(c1)/C(=N/O)CC1(CCN(Cc3ccccc3)CC1)O2)NO [Example 19, (E)-3-{1′-Benzyl-4-hydroxyimino-spiro[chromane-2,4′-piperidine]-6-yl}-N-hydroxy-acrylamide]
100 to 1000 nM	–	–	–	O=C(/C=C/c1ccc2c(c1)C(=O)CC1(CCN(Cc3ccccc3-c3ccccc3)CC1)O2)NO [Example 67, (E)-3-{1′-(Biphenyl-2yl-methyl)-4-oxo-spiro[chromane-2,4′-piperidine]-6-yl}-N-hydroxy-acrylamide]
100 to 1000 nM	1000 to 3000 nM	1000 to 3000 nM	≤ 1000 nM	CN1C(=O)c2cc(/C=C/C(=O)NO)ccc2OC12CCN(Cc1ccccc1)CC2 [Example 76, (E)-3-{1′-Benzyl-3,4-dihydro-3-methyl-4-oxo-spiro[2H-(1,3)-benzoxazine-2,4′-piperidin]-6-yl}-N-hydroxy-acrylamide]
100 to 1000 nM	1000 to 3000 nM	≥ 3000 nM	1000 to 3000 nM	CCOC(=O)N1CCC2(CC1)CC(=O)c1cc(/C=C/C(=O)NO)ccc1O2 [Example 6, (E)-3-{1′-Ethyloxycarbonyl-4-oxo-spiro[chromane-2,4′-piperidine]-6-yl}-N-hydroxy-acrylamide]
< 100 nM	–	–	–	Cc1ccc(CCN2CCC3(CC2)CC(=O)c2cc(/C=C/C(=O)NO)ccc2O3)cc1 [Example 61, (E)-3-{1′-[2-(4-Methyl-phenyl)-ethyl]-4-oxo-spiro[chromane-2,4′-piperidine]-6-yl}-N-hydroxy-acrylamide]
100 to 1000 nM	≤ 1000 nM	1000 to 3000 nM	1000 to 3000 nM	O=C(/C=C/c1ccc2c(c1)C(=O)CC1(CCN(Cc3cccc(F)c3)CC1)O2)NO [Example 35, (E)-3-{1′-(3-Fluoro-benzyl)-4-oxo-spiro[chromane-2,4′-piperidine]-6-yl}-N-hydroxy-acrylamide]
100 to 1000 nM	≥ 3000 nM	≥ 3000 nM	1000 to 3000 nM	O=C(/C=C/c1ccc2c(c1)C(=O)CC1(CCN(c3ncccn3)CC1)O2)NO [Example 27, (E)-3-{1′-Pyrimidin-2-yl-4-oxo-spiro[chromane-2,4′-piperidine]-6-yl}-N-hydroxy-acrylamide]
< 100 nM	≤ 1000 nM	≤ 1000 nM	≤ 1000 nM	COc1ccc(CCN2CCC3(CC2)CC(=O)c2cc(/C=C/C(=O)NO)ccc2O3)cc1 [Example 58, (E)-3-{1′-[2-(4-Methoxy-phenyl)-ethyl]-4-oxo-spiro[chromane-2,4′-piperidine]-6-yl}-N-hydroxy-acrylamide]
100 to 1000 nM	1000 to 3000 nM	1000 to 3000 nM	≤ 1000 nM	O=C(/C=C/c1ccc2c(c1)C(=O)CC1(CCN(Cc3cccnc3)CC1)O2)NO [Example 41, (E)-3-{1′-(Pyridin-3-ylmethyl)-4-oxo-spiro[chromane-2,4′-piperidine]-6-yl}-N-hydroxy-acrylamide]
100 to 1000 nM	–	–	–	O=C(/C=C/c1ccc2c(c1)C(=O)CC1(CCN(C3CCCC3)CC1)O2)NO [Example 70, (E)-3-{1′-Cyclopentyl-4-oxo-spiro[chromane-2,4′-piperidine]-6-yl}-N-hydroxy-acrylamide]
< 100 nM	–	–	–	O=C(/C=C/c1ccc2c(c1)C(=O)CC1(CCN(Cc3ccc4ccccc4n3)CC1)O2)NO [Example 65, (E)-3-{1′-(Quinolin-2-ylmethyl)-4-oxo-spiro[chromane-2,4′-piperidine]-6-yl}-N-hydroxy-acrylamide]
100 to 1000 nM	–	–	–	O=C(/C=C/c1ccc2c(c1)C(=O)CC1(CCN(Cc3cnc4ccccc4c3)CC1)O2)NO [Example 66, (E)-3-{1′-(Quinolin-3-ylmethyl)-4-oxo-spiro[chromane-2,4′-piperidine]-6-yl}-N-hydroxy-acrylamide]
< 100 nM	–	–	–	O=C(/C=C/c1ccc2c(c1)C(=O)N(Cc1ccccc1)C1(CCNCC1)O2)NO [Example 82, (E)-3-{3,4-Dihydro-3-benzyl-4-oxo-spiro[2H-(1,3)-benzoxazine-2,4′-piperidin]-6-yl}-N-hydroxy-acrylamide]
